# Test results: paper PMC9421654, “Discovery of Substituted Di(pyridin-2-yl)-1,2,4-thiadiazol-5-amines as Novel Macrofilaricidal Compounds for the Treatment of Human Filarial Infections” (Journal of Medicinal Chemistry, 2022)
# Legend:
# [1] = in vitro; conditions: human, Caco-2
# [2] = in vivo; conditions: dog
# Description: IV formulation vehicle for rat: 15% DMA / 50%PEG / 35% D5W; for dog: 5% DMA /
# PO formulation vehicle for mouse and rat: a suspension in 0.5% CMC / 0.25% Tween80, as a
# suspension; for dog: a suspension in 0.5% methyl cellulose / 0.25% Tween80
# [3] = Plasma protein binding, rat; assay type: in vitro ADME; conditions: read-out: Plasma Protein Binding %, r (converted)
# [4] = Rat pharmacokinetics; conditions: in vivo
# Description: Table S1. Compound 31cross species PK data.
# [5] = Plasma protein binding, human; assay type: in vitro ADME; conditions: read-out: Plasma Protein Binding %, h (converted)
# [6] = THLE-2 cytotoxicity assay (ATP); conditions: human
# Method in brief: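 THLE-2 cells in supplemented LHC-8 medium were exposed for 24 or 72 h to final concentrations of 0.01–300 μM. Viability was read as ATP by CellTiter-Glo luminescence and normalized to DMSO vehicle. IC50 came from nonlinear regression of dose-response curves.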
# [7] = system: CEREP receptor, ion channel, transporter panel; assay: Eurofins CEREP non-kinase panel, binding; conditions: binding at 10 μM
# Experimental: [36] Eurofins Cerep, Le Bois l’Evêque B.P. 30001, 86 600 Celle l’Evescault, France. Compound binding was calculated as a % inhibition of the binding of a radioactively labeled ligand specific for each target.
# [8] = Exploratory toxicological evaluation in vivo
# Description: Showing no in vitro safety concerns (Table 7), it was progressed into in vivo safety evaluation studies. […] Since the mechanism of action of this series of compounds is not known, the best approach was to design analogs that would limit exposure within the brain.
# [9] = target: T1, CYP1A2 (Homo sapiens, UniProt P05177); assay: Cytochrome P450 inhibition, 1A2; assay type: in vitro ADME; conditions: read-out: Cytochrome P450s IC50, 1A2
# T1 sequence (P05177 1-516): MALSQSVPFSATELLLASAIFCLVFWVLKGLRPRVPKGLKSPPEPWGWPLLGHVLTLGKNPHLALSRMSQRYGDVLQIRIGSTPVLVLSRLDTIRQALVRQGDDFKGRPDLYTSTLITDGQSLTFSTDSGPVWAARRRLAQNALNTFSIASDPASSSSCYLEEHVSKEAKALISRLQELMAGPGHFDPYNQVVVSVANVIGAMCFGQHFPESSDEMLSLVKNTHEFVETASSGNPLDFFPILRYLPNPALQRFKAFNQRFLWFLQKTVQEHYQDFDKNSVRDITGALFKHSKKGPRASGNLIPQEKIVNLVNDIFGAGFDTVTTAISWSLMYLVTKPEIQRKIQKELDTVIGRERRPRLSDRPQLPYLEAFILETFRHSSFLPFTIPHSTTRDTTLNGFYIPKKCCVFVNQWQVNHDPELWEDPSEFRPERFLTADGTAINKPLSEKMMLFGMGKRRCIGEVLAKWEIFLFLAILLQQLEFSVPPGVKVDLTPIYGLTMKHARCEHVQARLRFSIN
# [10] = target: T2, P-gp (MDR1) (Homo sapiens, UniProt P08183); assay: MDCK/MDR1 permeability and efflux; assay type: in vitro ADME; conditions: dog
# T2 construct: expressed in transfected cells; host or cells: MDCK (Madin Darby canine kidney) cells
# T2 sequence (P08183 whole entry): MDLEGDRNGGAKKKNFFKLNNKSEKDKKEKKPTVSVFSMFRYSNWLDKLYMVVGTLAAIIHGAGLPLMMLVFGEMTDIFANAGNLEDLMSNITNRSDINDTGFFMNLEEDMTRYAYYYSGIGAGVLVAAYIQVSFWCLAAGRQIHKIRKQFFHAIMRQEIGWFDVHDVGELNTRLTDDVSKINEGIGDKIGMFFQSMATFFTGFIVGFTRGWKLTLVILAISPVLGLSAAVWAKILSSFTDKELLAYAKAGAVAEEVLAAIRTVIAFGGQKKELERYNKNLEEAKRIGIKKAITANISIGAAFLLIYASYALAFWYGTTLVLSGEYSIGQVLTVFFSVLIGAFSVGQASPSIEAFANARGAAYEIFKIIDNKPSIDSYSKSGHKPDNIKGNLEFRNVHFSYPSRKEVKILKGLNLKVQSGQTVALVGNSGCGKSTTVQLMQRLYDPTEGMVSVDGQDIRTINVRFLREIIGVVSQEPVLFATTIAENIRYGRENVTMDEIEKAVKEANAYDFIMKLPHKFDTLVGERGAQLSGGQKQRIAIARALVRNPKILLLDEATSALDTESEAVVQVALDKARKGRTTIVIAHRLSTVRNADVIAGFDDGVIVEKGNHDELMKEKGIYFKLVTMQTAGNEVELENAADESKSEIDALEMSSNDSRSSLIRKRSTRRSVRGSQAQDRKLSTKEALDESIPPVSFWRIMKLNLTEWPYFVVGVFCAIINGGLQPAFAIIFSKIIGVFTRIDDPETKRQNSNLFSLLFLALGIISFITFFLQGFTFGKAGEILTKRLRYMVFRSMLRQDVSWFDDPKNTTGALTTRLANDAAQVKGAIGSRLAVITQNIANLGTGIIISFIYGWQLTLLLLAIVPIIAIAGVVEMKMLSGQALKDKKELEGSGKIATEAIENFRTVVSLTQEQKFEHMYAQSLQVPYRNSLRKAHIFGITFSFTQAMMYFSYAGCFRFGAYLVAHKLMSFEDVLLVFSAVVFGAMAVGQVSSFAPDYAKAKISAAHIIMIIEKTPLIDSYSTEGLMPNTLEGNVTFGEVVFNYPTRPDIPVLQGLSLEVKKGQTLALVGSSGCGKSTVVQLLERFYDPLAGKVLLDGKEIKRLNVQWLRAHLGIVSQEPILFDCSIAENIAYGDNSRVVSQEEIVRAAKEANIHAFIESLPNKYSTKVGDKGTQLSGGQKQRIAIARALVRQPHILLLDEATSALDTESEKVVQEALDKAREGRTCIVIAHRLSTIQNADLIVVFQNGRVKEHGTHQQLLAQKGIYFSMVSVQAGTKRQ
# Description: Our approach was to target compounds with efflux ratio (ER) >2.5 in the MDCK cell line transfected with MDR1 (multidrug resistance-1 transfected Madin Darby canine kidney cell line). […] Our goal was to impart structural elements designed to impart Pgp recognition.
# [11] = system: TK6 cells; assay: Micronucleus test; assay type: cell-based; conditions: presence and absence of rat liver S9
smiles,measurement,setting,value
"Cc1cccnc1Nc1nc(-c2ccc(OC3CCN(C4CC4)CC3)cn2)ns1 [Compound 19, 3-[5-[(1-Cyclopropyl-4-piperidyl)oxy]-2-pyridyl]-N-(3-methyl-2-pyridyl)-1,2,4-thiadiazol-5-amine]",efflux ratio,[1],0.9
"CC(C)Oc1ccc(-c2nsc(Nc3ncccc3N(C)C)n2)nc1 [Compound 31, N^2-(3-(5-Isopropoxypyridin-2-yl)-1,2,4-thiadiazol-5-yl)-N3,N3-dimethylpyridine-2,3-diamine]",Vd,"[2]; iv, 2 mg/kg",3.08 ± 0.03 L/kg
same,clearance,"[2]; iv, 2 mg/kg",18.8 ± 2.7 mL/min/kg
same,AUC(0-inf),"[2]; po, 3 mg/kg",4.02 ± 1.03 µM·h
same,Cmax,"[2]; po, 3 mg/kg",1.41 ± 0.53 µM
same,Tmax,"[2]; po, 3 mg/kg",1.2 ± 0.8 h
same,bioavailability,"[2]; po, 3 mg/kg",55 ± 21%
same,fraction unbound,[3],< 0.01
same,clearance,"[4]; iv, i.v. 2 mg/kg, mean ±SD",8.22 ± 2.72 mL/min/kg
same,Vd,"[4]; iv, i.v. 2 mg/kg, read-out: Vss",2.07 ± 0.92 L/kg
same,AUC(0-inf),"[4]; po, p.o. 10 mg/kg",38.1 ± 5.1 µM·h
same,Cmax,"[4]; po, p.o. 10 mg/kg",6.28 ± 0.9 µM
same,Tmax,"[4]; po, p.o. 10 mg/kg",2 h
same,bioavailability,"[4]; po, p.o. 10 mg/kg",63 ± 20%
same,fraction unbound,[5],< 0.01
same,CC50,[6],36 µM
same,"CEREP receptor, ion channel, transporter panel: targets bound / tested",[7]; targets with >70%,5/76
same,"exploratory toxicological evaluation, observations",[8],CNS (central nervous system)-related observations were noted
same,IC50,[9],> 30 µM
"CC(=O)N(C)c1cccnc1Nc1nc(-c2ccc(OC(C)C)cn2)ns1 [Compound 47, N-(2-((3-(5-Isopropoxypyridin-2-yl)-1,2,4-thiadiazol-5-yl)amino)pyridin-3-yl)-N-methylacetamide]",fraction unbound,[3],0.05
same,fraction unbound,[5],0.093
same,CC50,[6],106 µM
same,Papp A→B,[10],3.9 ×10⁻⁶ cm/s
same,"CEREP receptor, ion channel, transporter panel: targets bound / tested",[7]; targets with >50%,1/76
same,IC50,[9],> 30 µM
same,micronucleus,[11],negative
"CC(C)Oc1ccc(-c2nsc(Nc3ncccc3N(C)C(=O)C3CC3)n2)nc1 [Compound 50, N-(2-((3-(5-Isopropoxypyridin-2-yl)-1,2,4-thiadiazol-5-yl)amino)pyridin-3-yl)-N-methylcyclopropanecarboxamide]",Papp A→B,[10],19.3 ×10⁻⁶ cm/s
